In the CheMixHub viscosity set:
± gives the uncertainty stated by the source.

Experiment: xn = mol fraction of the nth substance listed

SMILES: NCc1ccccc1 + O
- viscosity (293.15 K, 101 kPa, x1 = 0.1003): 3.23 ± 0.07 mPa·s
- viscosity (293.15 K, 101 kPa, x1 = 0.2001): 4.4 ± 0.1 mPa·s
- viscosity (293.15 K, 101 kPa, x1 = 0.3): 4.8 ± 0.1 mPa·s
- viscosity (293.15 K, 101 kPa, x1 = 0.3997): 4.63 ± 0.1 mPa·s
- viscosity (293.15 K, 101 kPa, x1 = 0.5002): 4.16 ± 0.09 mPa·s
- viscosity (293.15 K, 101 kPa, x1 = 0.6): 3.57 ± 0.08 mPa·s
- viscosity (293.15 K, 101 kPa, x1 = 0.7): 2.95 ± 0.07 mPa·s
- viscosity (293.15 K, 101 kPa, x1 = 0.7999): 2.48 ± 0.06 mPa·s
- viscosity (293.15 K, 101 kPa, x1 = 0.9): 2.1 ± 0.05 mPa·s
- viscosity (303.15 K, 100 kPa, x1 = 0.1): 2.231 ± 0.048 mPa·s
- viscosity (303.15 K, 100 kPa, x1 = 0.2): 3.098 ± 0.066 mPa·s
- viscosity (303.15 K, 100 kPa, x1 = 0.3): 3.387 ± 0.073 mPa·s
- viscosity (303.15 K, 100 kPa, x1 = 0.4): 3.323 ± 0.072 mPa·s
- viscosity (303.15 K, 100 kPa, x1 = 0.5): 3.1 ± 0.068 mPa·s
- viscosity (303.15 K, 100 kPa, x1 = 0.6): 2.669 ± 0.059 mPa·s
- viscosity (303.15 K, 100 kPa, x1 = 0.7): 2.308 ± 0.052 mPa·s
- viscosity (303.15 K, 100 kPa, x1 = 0.8): 1.957 ± 0.045 mPa·s
- viscosity (303.15 K, 100 kPa, x1 = 0.9): 1.681 ± 0.039 mPa·s
- viscosity (303.15 K, 101 kPa, x1 = 0.1003): 2.28 ± 0.05 mPa·s
- viscosity (303.15 K, 101 kPa, x1 = 0.2001): 3.07 ± 0.07 mPa·s
- viscosity (303.15 K, 101 kPa, x1 = 0.3): 3.37 ± 0.07 mPa·s
- viscosity (303.15 K, 101 kPa, x1 = 0.3997): 3.3 ± 0.07 mPa·s
- viscosity (303.15 K, 101 kPa, x1 = 0.5002): 3.05 ± 0.07 mPa·s
- viscosity (303.15 K, 101 kPa, x1 = 0.6): 2.67 ± 0.06 mPa·s
- viscosity (303.15 K, 101 kPa, x1 = 0.7): 2.28 ± 0.05 mPa·s
- viscosity (303.15 K, 101 kPa, x1 = 0.7999): 1.94 ± 0.04 mPa·s
- viscosity (303.15 K, 101 kPa, x1 = 0.9): 1.68 ± 0.04 mPa·s
- viscosity (313.15 K, 100 kPa, x1 = 0.1): 1.725 ± 0.037 mPa·s
- viscosity (313.15 K, 100 kPa, x1 = 0.2): 2.324 ± 0.05 mPa·s
- viscosity (313.15 K, 100 kPa, x1 = 0.3): 2.512 ± 0.054 mPa·s
- viscosity (313.15 K, 100 kPa, x1 = 0.4): 2.51 ± 0.055 mPa·s
- viscosity (313.15 K, 100 kPa, x1 = 0.5): 2.353 ± 0.052 mPa·s
- viscosity (313.15 K, 100 kPa, x1 = 0.6): 2.064 ± 0.046 mPa·s
- viscosity (313.15 K, 100 kPa, x1 = 0.7): 1.823 ± 0.041 mPa·s
- viscosity (313.15 K, 100 kPa, x1 = 0.8): 1.591 ± 0.036 mPa·s
- viscosity (313.15 K, 100 kPa, x1 = 0.9): 1.396 ± 0.032 mPa·s
- viscosity (313.15 K, 101 kPa, x1 = 0.1003): 1.7 ± 0.04 mPa·s
- viscosity (313.15 K, 101 kPa, x1 = 0.2001): 2.25 ± 0.05 mPa·s
- viscosity (313.15 K, 101 kPa, x1 = 0.3): 2.48 ± 0.05 mPa·s
- viscosity (313.15 K, 101 kPa, x1 = 0.3997): 2.46 ± 0.05 mPa·s
- viscosity (313.15 K, 101 kPa, x1 = 0.5002): 2.28 ± 0.05 mPa·s
- viscosity (313.15 K, 101 kPa, x1 = 0.6): 2.03 ± 0.05 mPa·s
- viscosity (313.15 K, 101 kPa, x1 = 0.7): 1.78 ± 0.04 mPa·s
- viscosity (313.15 K, 101 kPa, x1 = 0.7999): 1.55 ± 0.04 mPa·s
- viscosity (313.15 K, 101 kPa, x1 = 0.9): 1.36 ± 0.03 mPa·s
- viscosity (323.15 K, 100 kPa, x1 = 0.1): 1.385 ± 0.03 mPa·s
- viscosity (323.15 K, 100 kPa, x1 = 0.2): 1.793 ± 0.039 mPa·s
- viscosity (323.15 K, 100 kPa, x1 = 0.3): 1.956 ± 0.042 mPa·s
- viscosity (323.15 K, 100 kPa, x1 = 0.4): 1.93 ± 0.042 mPa·s
- viscosity (323.15 K, 100 kPa, x1 = 0.5): 1.831 ± 0.04 mPa·s
- viscosity (323.15 K, 100 kPa, x1 = 0.6): 1.648 ± 0.037 mPa·s
- viscosity (323.15 K, 100 kPa, x1 = 0.7): 1.469 ± 0.033 mPa·s
- viscosity (323.15 K, 100 kPa, x1 = 0.8): 1.309 ± 0.03 mPa·s
- viscosity (323.15 K, 100 kPa, x1 = 0.9): 1.182 ± 0.027 mPa·s
- viscosity (323.15 K, 101 kPa, x1 = 0.1003): 1.38 ± 0.03 mPa·s
- viscosity (323.15 K, 101 kPa, x1 = 0.2001): 1.78 ± 0.04 mPa·s
- viscosity (323.15 K, 101 kPa, x1 = 0.3): 1.93 ± 0.04 mPa·s
- viscosity (323.15 K, 101 kPa, x1 = 0.3997): 1.91 ± 0.04 mPa·s
- viscosity (323.15 K, 101 kPa, x1 = 0.5002): 1.79 ± 0.04 mPa·s
- viscosity (323.15 K, 101 kPa, x1 = 0.6): 1.63 ± 0.04 mPa·s
- viscosity (323.15 K, 101 kPa, x1 = 0.7): 1.47 ± 0.03 mPa·s
- viscosity (323.15 K, 101 kPa, x1 = 0.7999): 1.3 ± 0.03 mPa·s
- viscosity (323.15 K, 101 kPa, x1 = 0.9): 1.15 ± 0.03 mPa·s

SMILES: CCC(=O)c1ccccc1 + CCOC(C)=O
- viscosity (303.15 K, 101 kPa, x1 = 0.0764): 0.4784 ± 0.01 mPa·s
- viscosity (303.15 K, 101 kPa, x1 = 0.1569): 0.5399 ± 0.012 mPa·s
- viscosity (303.15 K, 101 kPa, x1 = 0.2419): 0.6088 ± 0.013 mPa·s
- viscosity (303.15 K, 101 kPa, x1 = 0.3317): 0.6897 ± 0.015 mPa·s
- viscosity (303.15 K, 101 kPa, x1 = 0.4268): 0.7853 ± 0.017 mPa·s
- viscosity (303.15 K, 101 kPa, x1 = 0.5276): 0.8977 ± 0.02 mPa·s
- viscosity (303.15 K, 101 kPa, x1 = 0.6347): 1.034 ± 0.023 mPa·s
- viscosity (303.15 K, 101 kPa, x1 = 0.7486): 1.199 ± 0.027 mPa·s
- viscosity (303.15 K, 101 kPa, x1 = 0.8701): 1.398 ± 0.032 mPa·s
- viscosity (308.15 K, 101 kPa, x1 = 0.0764): 0.4618 ± 0.01 mPa·s
- viscosity (308.15 K, 101 kPa, x1 = 0.1569): 0.519 ± 0.011 mPa·s
- viscosity (308.15 K, 101 kPa, x1 = 0.2419): 0.5844 ± 0.013 mPa·s
- viscosity (308.15 K, 101 kPa, x1 = 0.3317): 0.6608 ± 0.015 mPa·s
- viscosity (308.15 K, 101 kPa, x1 = 0.4268): 0.7493 ± 0.017 mPa·s
- viscosity (308.15 K, 101 kPa, x1 = 0.5276): 0.8602 ± 0.019 mPa·s
- viscosity (308.15 K, 101 kPa, x1 = 0.6347): 0.9953 ± 0.022 mPa·s
- viscosity (308.15 K, 101 kPa, x1 = 0.7486): 1.153 ± 0.026 mPa·s
- viscosity (308.15 K, 101 kPa, x1 = 0.8701): 1.333 ± 0.03 mPa·s
- viscosity (313.15 K, 101 kPa, x1 = 0.0764): 0.4426 ± 0.0096 mPa·s
- viscosity (313.15 K, 101 kPa, x1 = 0.1569): 0.4991 ± 0.011 mPa·s
- viscosity (313.15 K, 101 kPa, x1 = 0.2419): 0.5564 ± 0.012 mPa·s
- viscosity (313.15 K, 101 kPa, x1 = 0.3317): 0.6277 ± 0.014 mPa·s
- viscosity (313.15 K, 101 kPa, x1 = 0.4268): 0.7199 ± 0.016 mPa·s
- viscosity (313.15 K, 101 kPa, x1 = 0.5276): 0.8175 ± 0.018 mPa·s
- viscosity (313.15 K, 101 kPa, x1 = 0.6347): 0.9454 ± 0.021 mPa·s
- viscosity (313.15 K, 101 kPa, x1 = 0.7486): 1.095 ± 0.025 mPa·s
- viscosity (313.15 K, 101 kPa, x1 = 0.8701): 1.261 ± 0.029 mPa·s

SMILES: CCCCCCCCCc1ccccc1 + CCCCCCCCCCCCCCCC
- viscosity (293.15 K, 102 kPa, x1 = 0.1006): 3.4 ± 0.03 mPa·s
- viscosity (293.15 K, 102 kPa, x1 = 0.2005): 3.32 ± 0.03 mPa·s
- viscosity (293.15 K, 102 kPa, x1 = 0.3005): 3.28 ± 0.03 mPa·s
- viscosity (293.15 K, 102 kPa, x1 = 0.4001): 3.22 ± 0.03 mPa·s
- viscosity (293.15 K, 102 kPa, x1 = 0.5008): 3.18 ± 0.03 mPa·s
- viscosity (293.15 K, 102 kPa, x1 = 0.6006): 3.15 ± 0.03 mPa·s
- viscosity (293.15 K, 102 kPa, x1 = 0.6997): 3.13 ± 0.03 mPa·s
- viscosity (293.15 K, 102 kPa, x1 = 0.7978): 3.12 ± 0.03 mPa·s
- viscosity (293.15 K, 102 kPa, x1 = 0.9003): 3.12 ± 0.03 mPa·s
- viscosity (303.15 K, 102 kPa, x1 = 0.1006): 2.71 ± 0.03 mPa·s
- viscosity (303.15 K, 102 kPa, x1 = 0.2005): 2.65 ± 0.03 mPa·s
- viscosity (303.15 K, 102 kPa, x1 = 0.3005): 2.62 ± 0.03 mPa·s
- viscosity (303.15 K, 102 kPa, x1 = 0.4001): 2.58 ± 0.03 mPa·s
- viscosity (303.15 K, 102 kPa, x1 = 0.5008): 2.54 ± 0.03 mPa·s
- viscosity (303.15 K, 102 kPa, x1 = 0.6006): 2.52 ± 0.03 mPa·s
- viscosity (303.15 K, 102 kPa, x1 = 0.6997): 2.51 ± 0.03 mPa·s
- viscosity (303.15 K, 102 kPa, x1 = 0.7978): 2.5 ± 0.03 mPa·s
- viscosity (313.15 K, 102 kPa, x1 = 0.1006): 2.2 ± 0.02 mPa·s
- viscosity (313.15 K, 102 kPa, x1 = 0.2005): 2.16 ± 0.03 mPa·s
- viscosity (313.15 K, 102 kPa, x1 = 0.3005): 2.13 ± 0.03 mPa·s
- viscosity (313.15 K, 102 kPa, x1 = 0.4001): 2.11 ± 0.03 mPa·s
- viscosity (313.15 K, 102 kPa, x1 = 0.5008): 2.09 ± 0.03 mPa·s
- viscosity (313.15 K, 102 kPa, x1 = 0.6006): 2.06 ± 0.03 mPa·s
- viscosity (313.15 K, 102 kPa, x1 = 0.6997): 2.05 ± 0.03 mPa·s
- viscosity (313.15 K, 102 kPa, x1 = 0.7978): 2.05 ± 0.03 mPa·s
- viscosity (313.15 K, 102 kPa, x1 = 0.9003): 2.05 ± 0.03 mPa·s
- viscosity (323.15 K, 102 kPa, x1 = 0.1006): 1.83 ± 0.02 mPa·s
- viscosity (323.15 K, 102 kPa, x1 = 0.2005): 1.8 ± 0.02 mPa·s
- viscosity (323.15 K, 102 kPa, x1 = 0.3005): 1.78 ± 0.02 mPa·s
- viscosity (323.15 K, 102 kPa, x1 = 0.4001): 1.76 ± 0.02 mPa·s
- viscosity (323.15 K, 102 kPa, x1 = 0.5008): 1.74 ± 0.02 mPa·s
- viscosity (323.15 K, 102 kPa, x1 = 0.6006): 1.73 ± 0.02 mPa·s
- viscosity (323.15 K, 102 kPa, x1 = 0.6997): 1.72 ± 0.03 mPa·s
- viscosity (323.15 K, 102 kPa, x1 = 0.7978): 1.71 ± 0.03 mPa·s
- viscosity (323.15 K, 102 kPa, x1 = 0.9003): 1.71 ± 0.03 mPa·s
